Data published in patent US10894076B2 (PEGBIO CO., LTD., priority 2015, dated 2021).

Experiments:
[1] = tested on: DIO mice; assay: Long-term administration of PB-718, PB-119 and PB-708+PB-120, weight loss in DIO mice (Example 17); assay type: in vivo, C57BL/6 mice; conditions: 14 days
Procedure: The Victoza group was dosed once a day and the remaining groups were dosed once every 2 days. The continuous administration experiment was conducted for a total of 14 days. During the experimental period, the body weight and food intake of the mice were measured every day. Random blood sugar level was measured before the start of the experiment and after the complement of the experiment.

[2] = tested on: DIO mice; assay: Long-term administration of PB-716 series conjugates, weight loss in DIO mice (Example 16); assay type: in vivo, C57BL/6 mice
Procedure: […] The continuous administration experiments was conducted for a total of 14 days. During the experimental period, the body weight and food intake of the mice were measured every day. Random blood sugar level was measured before the start of the experiment and after the complement of the experiment.

[3] = tested on: nonalcoholic steatohepatitis (NASH) model mice; assay: Combination of PB-119 and PB-722 in nonalcoholic steatohepatitis (NASH) mouse model (Example 21); assay type: in vivo, C57/BL6J mice; conditions: 10 mg/kg orally once a day, 21 days
Text: 30 C57/BL6J mice (purchased from Lingchang Biotechnology Co. Ltd., Shanghai, China) were used in this experiment. Twenty four of them were intraperitoneally injected with streptozotocin (STZ) one week after they were born and fed with high-fat diet (purchased from Research Diets, Inc) for five weeks to successfully create a nonalcoholic steatohepatitis (NASH) model. The other 6 were used as normal control and fed with normal diet. The administration started at the sixth week. […] The positive control group was orally administered once a day and the other groups were administered subcutaneously once every two days for 21 consecutive days. During the administration period, body weight was measured every day and the food intake was measured every two days. After the last day of administration, the animals were fasted overnight, and then weighed and euthanized. Serum and liver tissues were taken and the liver weights were measured. Serum glucose and insulin levels were detected. Liver tissue was fixed with formaldehyde solution, and tissue sections were made and stained with HE, oil red and Sirius red. The sections were examined and scored to determine the NASH index.

[4] = tested on: DIO mice; assay: Long-term administration of PB-119 with PB-721 or PB-722, weight loss and lipids in DIO mice (Example 18); assay type: in vivo, C57BL/6 mice; conditions: for decrease of liver triglyceride content compared with model control group / decrease of serum total cholesterol content / serum triglyceride level: Day21; for decrease of cumulative food intake compared with model control group / body weight decrease compared with that before the administration: 21 days
Procedure: Each group was administered subcutaneously, once every two days, and the experiment lasted for 21 days with 11 administrations. During the experimental period, the body weight and food intake of the mice were measured every day. The blood sugar level was measured at Day1 and Day21, and the serum triglyceride serum, total cholesterol, liver triglyceride and other indexes were measured at Day21.

[5] = tested on: DIO mice; assay: Combination of PB-119 and PB-722, weight loss in DIO mice, 21 days (Example 20); assay type: in vivo, C57BL/6 mice; conditions: 10 nmol/kg once every two days
Procedure: Male C57BL/6 mice (from the same source as described above) were fed with high-fat diet (45% kcal) for 22 weeks. […] 36 DIO mice were divided into 6 groups based on their body weight and random blood sugar level, with 6 mice per group. […] Except that administration was carried out twice a day in group 6, administration was carried out once every two days in other groups. The experiment was conducted for a total of 21 days for a continuous administration. The body weight and food intake of the mice were measured on the day of the administration, and random blood sugar level and fasting blood sugar level were measured on the second day after the last administration.
After 21 days of administration, an oral glucose tolerance experiment was performed. Mice were orally given 2.5 g/kg glucose solution, and random glucose level was measured at 0 min, 15 min, 30 min, 60 min and 120 min after sugar feeding.

Molecule: CCCCCCCCCCCCCCCC(=O)N[C@@H](CCC(=O)NCCCC[C@H](NC(=O)[C@H](C)NC(=O)[C@H](C)NC(=O)[C@H](CCC(N)=O)NC(=O)CNC(=O)[C@H](CCC(=O)O)NC(=O)[C@H](CC(C)C)NC(=O)[C@H](Cc1ccc(O)cc1)NC(=O)[C@H](CO)NC(=O)[C@H](CO)NC(=O)[C@@H](NC(=O)[C@H](CC(=O)O)NC(=O)[C@H](CO)NC(=O)[C@@H](NC(=O)[C@H](Cc1ccccc1)NC(=O)[C@@H](NC(=O)CNC(=O)[C@H](CCC(=O)O)NC(=O)[C@H](C)NC(=O)[C@@H](N)Cc1cnc[nH]1)[C@@H](C)O)[C@@H](C)O)C(C)C)C(=O)N[C@@H](CCC(=O)O)C(=O)N[C@@H](Cc1ccccc1)C(=O)N[C@H](C(=O)N[C@@H](C)C(=O)N[C@@H](Cc1c[nH]c2ccccc12)C(=O)N[C@@H](CC(C)C)C(=O)N[C@H](C(=O)N[C@@H](CCCNC(=N)N)C(=O)NCC(=O)N[C@@H](CCCNC(=N)N)C(=O)NCC(=O)O)C(C)C)[C@@H](C)CC)C(=O)O [Victoza, reference compound]
- body weight decrease compared with that before the administration ([1]; 200 μg/kg once a day): 15.92%
- body weight decrease compared with that before the administration ([2]; 200 μg/kg once a day, 14 days): 15.83%
- decrease of cumulative food intake relative to model control group ([2]; 200 μg/kg once a day, end of 14-day continuous administration): 50.82%
- body weight compared with control group by 96 hours after first administration ([2]; Victoza 200 μg/kg, single administration): no significant difference

Molecule: CCCc1nc2c(C)cc(-c3nc4ccccc4n3C)cc2n1Cc1ccc(-c2ccccc2C(=O)O)cc1 [telmisartan]
- blood sugar level [3]: no effect

Molecule: mPEG-23 KD-ppMAL--PB-740 (HSQGTFTSDYSKYLDSRRAQDFVQWLMNTC; mPEG-23KD-ppMAL conjugate) [PB-721]
- decrease of liver triglyceride content compared with model control group ([4]; 60 nmol/kg alone): 73.29%
- decrease of serum total cholesterol content ([4]; 60 nmol/kg alone): 60.86%
- serum triglyceride level ([4]; 60 nmol/kg alone): did not significantly improve
- decrease of cumulative food intake compared with model control group ([4]; 60 nmol/kg alone, s.c. once every two days): 2.36%
- body weight decrease compared with that before the administration ([4]; alone, 60 nmol/L as printed, s.c. once every two days): 21.65%

Molecule: mPEG-23 KD-ppMAL-PB-105 [PB-119]
- decrease of liver triglyceride content compared with model control group ([4]; 10 nmol/kg alone): 12.67%
- decrease of serum total cholesterol content ([4]; 10 nmol/kg alone): 39.35%
- serum triglyceride level ([4]; 10 nmol/kg alone): did not significantly improve
- decrease of cumulative food intake compared with model control group ([4]; 10 nmol/kg alone, s.c. once every two days): 25.14%
- body weight decrease compared with that before the administration ([4]; 10 nmol/kg s.c. once every two days): 14.37%
- body weight decrease compared with that before the administration [5]: 16.6%
- decrease in cumulative food intake compared with control group [5]: 14.4%
- fasting blood sugar level decrease compared with that before administration [5]: 17.9%
- body weight decrease compared with that before the administration ([1]; 210 μg/kg once every 2 days): 13.33%
- decrease of cumulative food intake compared with control group ([1]; 210 μg/kg once every 2 days): 39.95%
- decrease of random blood sugar level ([1]; 210 μg/kg once every 2 days): 27.27%
